Experimental data from US12559496B2, “Imidazopyrimidines as modulators of IL-17” (Janssen Pharmaceutica NV, priority 2020, dated 2026).

Columns and labels:
[1] = molecular target: IL-17A(FLAG-Tagged): IL-17RA(His-Tagged) (Homo sapiens, UniProt Q16552, K93Q); assay: IL-17A(FLAG-Tagged): IL-17RA(His-Tagged) Binding Disruption Eu-HTRF Assay; conditions: disruption of IL-17A/IL-17RA binding; simple average if tested more than once
From the text: IL-17A(FLAG-Tagged): IL-17RA(His-Tagged) Binding Disruption Eu-HTRF Assay
An antibody directed against the FLAG tag of IL-17A (SEQ ID NO: 1) is labeled with the HTRF donor chromophore (Europium-cryptate). IL-17A is present as a dimer that is “locked into” this quaternary structure due to the formation of loop-spanning […] disulfide bridges. The construct of IL-17RA used in the assay excludes the […] portion of the receptor and is fused to a C-terminal 10×His tag (SEQ ID NO:2). An antibody directed against the His tag of the IL-17RA chimera is labeled with the HTRF acceptor chromophore (“D2”). The fluorescence-resonance energy transfer (FRET) depends on the vicinity of the donor chromophore to the acceptor, and interruption of the binding between the IL-17A and IL-17RA causes the reduction/loss of FRET. Therefore, this assay allows to evaluate the compound effect on the binding IL-17A and IL-17RA by monitoring the fluorescence intensity of donor vs acceptor. The assay is run as described below.
40 nL of 2-fold serial diluted compound solution for total 22 dilution points is added into each well of a 1536-well, white, low-volume, non-binding plate (Greiner #782904), then 2 μL of FLAG tagged IL-17A at 2× final concentration (2.5 nM) in solution of PBS+0.01% Triton-X100 is added to each well. The assay plate is briefly centrifuged then incubated for 1 h at rt. A mixed solution is prepared containing 2×5 nM 10HIS×IL-17RA, 2×2.5 nM Eu-anti-FLAG (CISBIO), 2×5 nM D2-anti-HIS (CISBIO) in PBS+0.01% Triton-X100+200 mM Potassium Fluoride (Sigma 60238) and 2 μL of mix is added to each well of the assay plate. The plate is briefly centrifuged then incubated for 2 h at rt. The HTRF intensities at the wavelength of donor (620 nm) and acceptor (665 nm) are measured using BMG Pherastar. The ratio between intensities at two wavelengths is calculated and plotted against the compound concentration and the data is fitted to a one-site competition model to yield IC50 of the compound.

[2] = test system: IL-17A-induced G-CSF production in human normal keratinocytes (NHK); assay: NHK Assay: IL-17A-induced G-CSF production in human normal keratinocytes; assay type: cell-based; conditions: IL-17A 5 ng/mL, 24 h, 5% FBS, simple average if tested more than once
Procedure: IL-17A acts directly on keratinocytes through binding to dimeric receptor IL-17RA/RC and drives the production of a number of inflammatory mediators known to be elevated in psoriasis lesional tissue. IL-17A small molecule inhibitors that block the IL-17A to interact with IL-17R would inhibit the IL-17A signaling in its targeted cells such as keratinocytes. The compound functional activity is evaluated for its impact on IL-17A-induced G-CSF production in human normal keratinocytes (NHK).
Adult normal human keratinocytes are cultured in keratinocyte growth medium (Lonza) in a flask till reaching ˜ 90% confluence, then cells are transferred to a 384-well plate at density of 3000-4000 cell/well. Recombinant human IL-17A (Gibco PHC9174) is pre-incubated with titrated compound or DMSO for 1 h at rt then added to the cell culture plate. The final concentration of IL-17A is 5 ng/mL and DMSO is 0.2%, in the culture containing 5% FBS. Cells are cultured/treated for 24 h at 37° C. Supernatants are collected and G-CSF production is measured through HTRF technology using Human G-CSF Kit (CisBio). G-CSF concentration was extrapolated from the standard curve and IC50 is determined using GraphPad Prism. Cell viability is also evaluated using CellTiter-Glo kit (Promega) and effect of compound on cell viability is compared to DMSO control.

Sequence of UniProt Q16552 (Q16552 with tags, fused parts or gaps K93Q): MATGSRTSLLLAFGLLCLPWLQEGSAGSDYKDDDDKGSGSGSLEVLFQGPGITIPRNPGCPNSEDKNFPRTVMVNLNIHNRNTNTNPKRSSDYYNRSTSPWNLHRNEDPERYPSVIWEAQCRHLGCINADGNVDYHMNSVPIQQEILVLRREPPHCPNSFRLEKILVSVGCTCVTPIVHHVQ

## Cc1conc1C(=O)N[C@H](c1cn2ccc([C@H](NC(=O)CC3CC3(F)F)C3CC3)nc2n1)C1CCC(F)(F)CC1 (single isomer, unassigned) [Example 54, N—((S)-(7-((R)-Cyclopropyl(2-((R*)-2,2-difluorocyclopropyl)acetamido)methyl)imidazo[1,2-a]pyrimidin-2-yl)(4,4-difluorocyclohexyl)methyl)-4-methylisoxazole-3-carboxamide]
[1]
  IC50: 460 nM
[2]
  IC50: 4500 nM

## O=C(CC1CC1(F)F)N[C@@H](c1ccn2cc([C@@H](NC(=O)c3ncnn3CC3CC3)C3CCC(F)(F)CC3)nc2n1)C1CC1 (single isomer, unassigned) [Example 55, N—((S)-(7-((R)-Cyclopropyl(2-((S*)-2,2-difluorocyclopropyl)acetamido)methyl)imidazo[1,2-a]pyrimidin-2-yl)(4,4-difluorocyclohexyl)methyl)-1-(cyclopropylmethyl)-1H-1,2,4-triazole-5-carboxamide]
[1]
  IC50: 570 nM
[2]; Homo sapiens, Keratinocyte
  IC50: 1100 nM

## O=C(CC1CC1(F)F)N[C@@H](c1ccn2cc([C@@H](NC(=O)c3ncnn3CC3CC3)C3CCC(F)(F)CC3)nc2n1)C1CC1 (single isomer, unassigned) [Example 56, N—((S)-(7-((R)-Cyclopropyl(2-((R*)-2,2-difluorocyclopropyl)acetamido)methyl)imidazo[1,2-a]pyrimidin-2-yl)(4,4-difluorocyclohexyl)methyl)-1-(cyclopropylmethyl)-1H-1,2,4-triazole-5-carboxamide]
[1]
  IC50: 730 nM
[2]
  IC50: 1800 nM

## O=C(CC1CC1(F)F)N[C@@H](c1ccn2cc([C@@H](NC(=O)c3conc3C(F)(F)F)C3CCC(F)(F)CC3)nc2n1)C1CC1 (single isomer, unassigned) [Example 57, N—((S)-(7-((R)-Cyclopropyl(2-((S*)-2,2-difluorocyclopropyl)acetamido)methyl)imidazo[1,2-a]pyrimidin-2-yl)(4,4-difluorocyclohexyl)methyl)-3-(trifluoromethyl)isoxazole-4-carboxamide]
[1]
  IC50: 220 nM
[2]
  IC50: 930 nM

## O=C(CC1CC1(F)F)N[C@@H](c1ccn2cc([C@@H](NC(=O)c3conc3C(F)(F)F)C3CCC(F)(F)CC3)nc2n1)C1CC1 (single isomer, unassigned) [Example 58, N—((S)-(7-((R)-Cyclopropyl(2-((R*)-2,2-difluorocyclopropyl)acetamido)methyl)imidazo[1,2-a]pyrimidin-2-yl)(4,4-difluorocyclohexyl)methyl)-3-(trifluoromethyl)isoxazole-4-carboxamide]
[1]
  IC50: 340 nM
[2]
  IC50: 2200 nM

## O=C(CCC(F)(F)F)NC(c1ccn2cc([C@@H](NC(=O)c3cnn(CCC(F)(F)F)c3)C3CCC(F)(F)CC3)nc2n1)C1CC1 (stereo in doubt) [Example 50, N—((S)-(7-((R*)-Cyclopropyl(4,4,4-trifluorobutanamido)methyl)imidazo[1,2-a]pyrimidin-2-yl)(4,4-difluorocyclohexyl)methyl)-1-(3,3,3-trifluoropropyl)-1H-pyrazole-4-carboxamide]
[1]
  IC50: 6800 nM
[2]; Homo sapiens, Keratinocyte
  IC50: > 20000 nM

## CC(C)n1ncnc1C(=O)N[C@H](c1cn2ccc([C@H](NC(=O)CC3CC(F)(F)C3)C3CC3)nc2n1)C1CCC(F)(F)CC1 [Example 13, N—((S)-(7-((R)-Cyclopropyl(2-(3,3-difluorocyclobutyl)acetamido)methyl)imidazo[1,2-a]pyrimidin-2-yl)(4,4-difluorocyclohexyl)methyl)-1-isopropyl-1H-1,2,4-triazole-5-carboxamide]
[1]
  IC50: 340 nM
[2]; Homo sapiens, Keratinocyte
  IC50: 500 nM

## CC(C)n1ncnc1C(=O)N[C@H](c1cn2ccc([C@@H](NC(=O)CC3CC(F)(F)C3)C3CC3)nc2n1)C1CCC(F)(F)CC1 [Example 14, N—((S)-(7-((S)-Cyclopropyl(2-(3,3-difluorocyclobutyl)acetamido)methyl)imidazo[1,2-a]pyrimidin-2-yl)(4,4-difluorocyclohexyl)methyl)-1-isopropyl-1H-1,2,4-triazole-5-carboxamide]
[1]
  IC50: 17000 nM
[2]; Homo sapiens, Keratinocyte
  IC50: > 20000 nM

## O=C(CC1CC(F)(F)C1)N[C@@H](c1ccn2cc([C@@H](NC(=O)c3ncnn3CC3CC3)C3CCC(F)(F)CC3)nc2n1)C1CC1 [Example 15, N—((S)-(7-((R)-Cyclopropyl(2-(3,3-difluorocyclobutyl)acetamido)methyl)imidazo[1,2-a]pyrimidin-2-yl)(4,4-difluorocyclohexyl)methyl)-1-(cyclopropylmethyl)-1H-1,2,4-triazole-5-carboxamide]
[1]
  IC50: 290 nM
[2]; Homo sapiens, Keratinocyte
  IC50: 1400 nM

## O=C(CC1CC(F)(F)C1)N[C@H](c1ccn2cc([C@@H](NC(=O)c3ncnn3CC3CC3)C3CCC(F)(F)CC3)nc2n1)C1CC1 [Example 16, N—((S)-(7-((S)-Cyclopropyl(2-(3,3-difluorocyclobutyl)acetamido)methyl)imidazo[1,2-a]pyrimidin-2-yl)(4,4-difluorocyclohexyl)methyl)-1-(cyclopropylmethyl)-1H-1,2,4-triazole-5-carboxamide]
[1]
  IC50: 12000 nM
[2]; Homo sapiens, Keratinocyte
  IC50: > 20000 nM

## Cc1nonc1C(=O)N[C@H](c1cn2ccc([C@H](NC(=O)CC3CC(F)(F)C3)C3CC3)nc2n1)C1CCC(F)(F)CC1 [Example 21, N—((S)-(7-((R)-Cyclopropyl(2-(3,3-difluorocyclobutyl)acetamido)methyl)imidazo[1,2-a]pyrimidin-2-yl)(4,4-difluorocyclohexyl)methyl)-4-methyl-1,2,5-oxadiazole-3-carboxamide]
[1]
  IC50: 99 nM
[2]; Homo sapiens, Keratinocyte
  IC50: 590 nM

## Cc1nonc1C(=O)N[C@H](c1cn2ccc([C@@H](NC(=O)CC3CC(F)(F)C3)C3CC3)nc2n1)C1CCC(F)(F)CC1 [Example 22, N—((S)-(7-((S)-Cyclopropyl(2-(3,3-difluorocyclobutyl)acetamido)methyl)imidazo[1,2-a]pyrimidin-2-yl)(4,4-difluorocyclohexyl)methyl)-4-methyl-1,2,5-oxadiazole-3-carboxamide]
[1]
  IC50: 6200 nM
[2]; Homo sapiens, Keratinocyte
  IC50: > 20000 nM

## Cc1nonc1C(=O)N[C@H](c1cn2ccc([C@H](NC(=O)CCC(F)(F)F)C3CC3)nc2n1)C1CCC(F)(F)CC1 [Example 23, N—((S)-(7-((R)-Cyclopropyl(4,4,4-trifluorobutanamido)methyl)imidazo[1,2-a]pyrimidin-2-yl)(4,4-difluorocyclohexyl)methyl)-4-methyl-1,2,5-oxadiazole-3-carboxamide]
[1]
  IC50: 130 nM
[2]; Homo sapiens, Keratinocyte
  IC50: 520 nM

## O=C(CC1CC(F)(F)C1)N[C@@H](c1ccn2cc([C@@H](NC(=O)c3conc3C3CC3)C3CCC(F)(F)CC3)nc2n1)C1CC1 [Example 24, 3-Cyclopropyl-N—((S)-(7-((R)-cyclopropyl(2-(3,3-difluorocyclobutyl)acetamido)methyl)imidazo[1,2-a]pyrimidin-2-yl)(4,4-difluorocyclohexyl)methyl)isoxazole-4-carboxamide]
[1]
  IC50: 180 nM
[2]; Homo sapiens, Keratinocyte
  IC50: 180 nM

## O=C(CC1CC(F)(F)C1)N[C@@H](c1ccn2cc([C@@H](NC(=O)c3ccnc(CC(F)(F)F)c3)C3CCC(F)(F)CC3)nc2n1)C1CC1 [Example 25, N—((S)-(7-((R)-Cyclopropyl(2-(3,3-difluorocyclobutyl)acetamido)methyl)imidazo[1,2-a]pyrimidin-2-yl)(4,4-difluorocyclohexyl)methyl)-2-(2,2,2-trifluoroethyl)isonicotinamide]
[1]
  IC50: 310 nM
[2]; Homo sapiens, Keratinocyte
  IC50: 210 nM
